# Measured values from patent publication US20110077248A1, “IMIDAZOPYRIDINE AND RELATED ANALOGS AS SIRTUIN MODULATORS” (Sirtris Pharmaceuticals, Inc., priority 2008, published 2011).
# Target: T1, SIRT1 (Homo sapiens, UniProt Q96EB6)
# T1 construct: His-tag (N); made in house; host or cells: E. coli BL21(DE3), T7-promoter vector
# T1 sequence (Q96EB6 1-747): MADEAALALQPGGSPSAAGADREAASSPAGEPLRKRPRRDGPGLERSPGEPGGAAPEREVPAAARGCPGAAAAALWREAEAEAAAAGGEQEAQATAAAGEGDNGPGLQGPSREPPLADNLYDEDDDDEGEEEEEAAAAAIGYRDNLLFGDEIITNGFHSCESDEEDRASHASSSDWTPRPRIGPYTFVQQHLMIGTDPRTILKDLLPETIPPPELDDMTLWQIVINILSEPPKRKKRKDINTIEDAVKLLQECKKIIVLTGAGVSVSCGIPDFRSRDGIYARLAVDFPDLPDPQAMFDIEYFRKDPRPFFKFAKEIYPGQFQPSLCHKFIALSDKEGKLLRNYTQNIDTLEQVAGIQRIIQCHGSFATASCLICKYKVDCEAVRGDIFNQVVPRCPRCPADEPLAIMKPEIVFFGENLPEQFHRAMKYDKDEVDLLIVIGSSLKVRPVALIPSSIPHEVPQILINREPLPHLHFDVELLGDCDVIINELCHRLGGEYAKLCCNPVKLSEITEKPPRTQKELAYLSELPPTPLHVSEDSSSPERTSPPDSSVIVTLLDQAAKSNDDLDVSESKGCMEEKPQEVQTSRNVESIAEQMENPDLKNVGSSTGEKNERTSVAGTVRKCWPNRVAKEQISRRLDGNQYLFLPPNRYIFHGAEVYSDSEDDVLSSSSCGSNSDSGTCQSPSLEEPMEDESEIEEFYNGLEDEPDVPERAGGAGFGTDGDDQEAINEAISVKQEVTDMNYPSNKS
# Experiment: Mass spectrometry based assay for modulators of SIRT1 activity (deacetylation of p53-based acetylated peptide)
# Type: biochemical
# Settings: for EC1.5: concentration of test compound that results in 150% activation of SIRT1, 0.5 μM peptide substrate, 120 μM βNAD+, 10 nM SIRT1, 25 min, 25° C.; for Emax: percent maximum fold activation of SIRT1
# Text: A mass spectrometry based assay was used to identify modulators of SIRT1 activity. The mass spectrometry based assay utilizes a peptide having 20 amino acid residues as follows: Ac-EE-K(biotin)-GQSTSSHSK(Ac)NleSTEG-K(5TMRi)-EE-NH2 (SEQ ID NO: 1) wherein K(Ac) is an acetylated lysine residue and Nle is a norleucine. The peptide is labeled with the fluorophore 5TMR (excitation 540 nm/emission 580 nm) at the C-terminus. The sequence of the peptide substrate is based on p53 with several modifications. In addition, the methionine residue naturally present in the sequence was replaced with the norleucine because the methionine may be susceptible to oxidation during synthesis and purification.
# The mass spectrometry assay is conducted as follows: 0.5 μM peptide substrate and 120 μM βNAD+ is incubated with 10 nM SIRT1 for 25 minutes at 25° C. in a reaction buffer (50 mM Tris-acetate pH 8, 137 mM NaCl, 2.7 mM KCl, 1 mM MgCl2, 5 mM DTT, 0.05% BSA). Test compounds may be added to the reaction as described above. The SirT1 gene is cloned into a T7-promoter containing vector and transformed into BL21(DE3). After the 25 minute incubation with SIRT1, 10 μL of 10% formic acid is added to stop the reaction. Reactions are sealed and frozen for later mass spec analysis. Determination of the mass of the substrate peptide allows for precise determination of the degree of acetylation (i.e. starting material) as compared to deacetylated peptide (product).
# A control for inhibition of sirtuin activity is conducted by adding 1 μL of 500 mM nicotinamide as a negative control at the start of the reaction (e.g., permits determination of maximum sirtuin inhibition). A control for activation of sirtuin activity is conducted using 10 nM of sirtuin protein, with 1 μL of DMSO in place of compound, to determinine the amount of deacetylation of the substrate at a given timepoint within the linear range of the assay. This timepoint is the same as that used for test compounds and, within the linear range, the endpoint represents a change in velocity.
# For the above assay, SIRT1 protein was expressed and purified as follows. The SirT1 gene was cloned into a T7-promoter containing vector and transformed into BL21(DE3). The protein was expressed by induction with 1 mM IPTG as an N-terminal His-tag fusion protein at 18° C. overnight and harvested at 30,000×g. Cells were lysed with lysozyme in lysis buffer (50 mM Tris-HCl, 2 mM Tris[2-carboxyethyl]phosphine (TCEP), 10 μM ZnCl2, 200 mM NaCl) and further treated with sonication for 10 min for complete lysis. The protein was purified over a Ni-NTA column (Amersham) and fractions containing pure protein were pooled, concentrated and run over a sizing column (Sephadex S200 26/60 global). The peak containing soluble protein was collected and run on an Ion-exchange column (MonoQ). Gradient elution (200 mM-500 mM NaCl) yielded pure protein. This protein was concentrated and dialyzed against dialysis buffer (20 mM Tris-HCl, 2 mM TCEP) overnight. The protein was aliquoted and frozen at −80° C. until further use.
# Sirtuin modulating compounds that activated SIRT1 were identified using the assay described above and are shown below in Table 1. The EC1.5 values represent the concentration of test compounds that result in 150% activation of SIRT1. The EC1.5 values for the activating compounds are represented by A (EC1.5<1.0 uM), B (EC1.5 1-25 uM), C (EC1.5>25 uM). The percent maximum fold activation is represented by A (Fold activation >200%) or B (Fold Activation <200%). “NT” indicates the compound was not tested in a particular assay.
SMILES,EC1.5,Emax
O=C(Nc1nc(CN2CCOCC2)cs1)c1cccn2cc(-c3cccc(OC(F)(F)F)c3)nc12 [Compound 133],A (EC1.5<1.0 uM),> 200%
O=C(Nc1nccs1)c1cccn2cc(-c3cccc(C(F)F)c3)nc12 [Compound 206],B (EC1.5 1-25 uM),< 200%
Cc1ncccc1-c1nc2c(C(=O)Nc3nc(CN4CCOCC4)cs3)cccn2n1 [Compound 241],B (EC1.5 1-25 uM),< 200%
Cc1ccc(-c2cn3ccnc(C(=O)Nc4cccc(CN5CCOCC5)n4)c3n2)cn1 [Compound 165],B (EC1.5 1-25 uM),< 200%
O=C(Nc1nc(CN2CCOCC2)cs1)c1cccn2cc(-c3ccc(F)cc3F)nc12 [Compound 198],A (EC1.5<1.0 uM),< 200%
O=C(Nc1nc(CN2CCOCC2)cs1)c1cccn2nc(-c3cccc(OC(F)(F)F)c3)nc12 [Compound 179],B (EC1.5 1-25 uM),> 200%
O=C(Nc1cccn2cc(-c3cccc(OC(F)(F)F)c3)nc12)c1cscn1 [Compound 104],C (EC1.5>25 uM),< 200%
O=C(Nc1ccccn1)c1cccn2nc(-c3cccc(N4CCOCC4)c3)nc12 [Compound 182],B (EC1.5 1-25 uM),< 200%
Cc1cc(-c2nc3c(C(=O)Nc4ccccn4)cccn3n2)ccn1 [Compound 215],B (EC1.5 1-25 uM),> 200%
O=C(Nc1ccccc1)c1cccn2cc(-c3cccc(OC(F)(F)F)c3)nc12 [Compound 116],C (EC1.5>25 uM),< 200%
"Cc1ccc(-c2nc3c(C(=O)Nc4nccs4)cccn3n2)cn1 [Compound 210, 2-(6-methylpyridin-3-yl)-N-(thiazol-2-yl)-[1,2,4]triazolo[1,5-a]pyridine-8-carboxamide]",C (EC1.5>25 uM),< 200%
O=C(Nc1cccc(CN2CCOCC2)n1)c1cccn2cc(-c3cc(F)c(F)c(F)c3)nc12 [Compound 197],B (EC1.5 1-25 uM),> 200%
O=C(Nc1cccc(CN2CCOCC2)n1)c1cccn2nc(-c3cccc(C(F)(F)F)c3)nc12 [Compound 178],B (EC1.5 1-25 uM),> 200%
O=C(Nc1ccccn1)c1nccn2cc(-c3ccc(N4CCCC4)cc3)nc12 [Compound 169],C (EC1.5>25 uM),< 200%
O=C(Nc1cccc(CN2CCOCC2)n1)c1cccn2cc(-c3cc(F)ccc3F)nc12 [Compound 201],A (EC1.5<1.0 uM),> 200%
"O=C(Nc1nccs1)c1cccn2cc(-c3ccc(CN4CCOCC4)cc3)nc12 [Compound 262, 2-(4-(morpholinomethyl)phenyl)-N-(thiazol-2-yl)imidazo[1,2-a]pyridine-8-carboxamide]",B (EC1.5 1-25 uM),> 200%
O=C(Nc1nc(CN2CCOCC2)cs1)c1cccn2cc(-c3cccc(C(F)F)c3)nc12 [Compound 208],A (EC1.5<1.0 uM),> 200%
O=C(Nc1nccs1)c1cccn2cc(-c3cccc(F)c3)nc12 [Compound 154],C (EC1.5>25 uM),< 200%
O=C(Nc1nccs1)c1cccn2nc(-c3ccccc3OC(F)F)nc12 [Compound 225],B (EC1.5 1-25 uM),> 200%

SMILES,EC1.5,Emax
O=C(NC1CCCC1)c1cccn2cc(-c3ccccc3)nc12 [Compound 110],C (EC1.5>25 uM),< 200%
O=C(NC1CCCC1)c1cccn2cc(-c3cccc(OC(F)(F)F)c3)nc12 [Compound 114],C (EC1.5>25 uM),< 200%
O=C(Nc1ccccn1)c1cccn2cc(-c3cccc(C(F)F)c3)nc12 [Compound 207],A (EC1.5<1.0 uM),< 200%
"O=C(Nc1cccc(OCC(O)CO)c1)c1cccn2cc(-c3cccc(C(F)(F)F)c3)nc12 (centres unmarked) [Compound 137, N-(3-(2,3-dihydroxypropoxy)phenyl)-2-(3-(trifluoromethyl)phenyl)imidazo[1,2-a]pyridine-8-carboxamide]",A (EC1.5<1.0 uM),> 200%
O=C(Nc1nccs1)c1cccn2cc(-c3ccccc3)nc12 [Compound 106],B (EC1.5 1-25 uM),< 200%
O=C(Nc1cccn2cc(-c3cccc(OC(F)(F)F)c3)nc12)c1cnccn1 [Compound 105],C (EC1.5>25 uM),< 200%
O=C(Nc1ccccn1)c1cccn2cc(-c3ccc(N4CCOCC4)cc3)nc12 [Compound 184],C (EC1.5>25 uM),< 200%
O=C(Nc1nccs1)c1nccn2cc(-c3ccccc3OC(F)(F)F)nc12 [Compound 185],B (EC1.5 1-25 uM),> 200%
O=C(Nc1ccccn1)c1nccn2cc(-c3ccccc3C(F)(F)F)nc12 [Compound 172],B (EC1.5 1-25 uM),> 200%
O=C(Nc1ccc(CCN2CCOCC2)cc1)c1cccn2cc(-c3ccc(F)cc3C(F)(F)F)nc12 [Compound 170],A (EC1.5<1.0 uM),> 200%
O=C(Nc1ccncn1)c1nccn2cc(-c3ccccc3OC(F)(F)F)nc12 [Compound 244],B (EC1.5 1-25 uM),> 200%
O=C(Nc1nc(CN2CCOCC2)cs1)c1cccn2cc(-c3cc(F)ccc3F)nc12 [Compound 200],A (EC1.5<1.0 uM),> 200%
O=C(Nc1nc(CN2CCOCC2)cs1)c1cccn2cc(-c3ccc(F)cc3C(F)(F)F)nc12 [Compound 237],A (EC1.5<1.0 uM),> 200%
O=C(Nc1ccncn1)c1nccn2cc(-c3ccc(F)cc3C(F)(F)F)nc12 [Compound 246],A (EC1.5<1.0 uM),> 200%
O=C(Nc1nccs1)c1cccn2cc(-c3ccc(C(F)(F)F)cc3)nc12 [Compound 150],C (EC1.5>25 uM),< 200%
"Cc1cc(-c2nc3c(C(=O)Nc4nccs4)cccn3n2)ccn1 [Compound 214, 2-(2-methylpyridin-4-yl)-N-(thiazol-2-yl)-[1,2,4]triazolo[1,5-a]pyridine-8-carboxamide]",B (EC1.5 1-25 uM),> 200%
O=C(Nc1cnccn1)c1nccn2cc(-c3ccc(F)cc3C(F)(F)F)nc12 [Compound 247],B (EC1.5 1-25 uM),> 200%
O=C(Nc1ccccn1)c1cccn2cc(-c3cccc(CN4CCOCC4)c3)nc12 [Compound 255],A (EC1.5<1.0 uM),> 200%
